According to patent publication US8207172B2 (Bayer Intellectual Property GmbH, priority 2004, dated 2012):
Counter-ions that a name gives are not always drawn.

What was measured:
[1] = tested on: A431 cells (human epidermoid carcinoma); experiment: In vitro tumor cell proliferation assay (Cell Titer-Glo luminescent cell viability), A431; assay type: cell-based; settings: A-431, 72 h, 72 hours of drug exposure, ATP luminescence readout, read-out: IC50, anti-proliferative activity (inhibition of cell proliferation)
Description: (§1) In vitro Tumor Cell Proliferation Assay
(§2) The tumor cell proliferation assay used to test the compounds of the present invention involves a readout called Cell Titer-Glow® Luminescent Cell Viability Assay developed by Promega® (Cunningham, B A “A Growing Issue: Cell Proliferation Assays, Modern kits ease quantification of cell growth” The Scientist 2001, 15(13), 26, and Crouch, S P et al., “The use of ATP bioluminescence as a measure of cell proliferation and cytotoxicity” Journal of Immunological Methods 1993, 160, 81-88), that measures inhibition of cell proliferation. Generation of a luminescent signal corresponds to the amount of ATP present, which is directly proportional to the number of metabolically active (proliferating) cells.
(§3) A431cells (human epidermoid carcinoma, ATCC […]) and BT474 (human breast carcinoma, ATCC […]) were plated at a density of 2.5×10^3 cells/well in 96 well black-clear bottom tissue culture plates in RPMI media with 10% Fetal Bovine Serum and incubated at 37° C. Twenty-four hours later, test compounds are added at a final concentration range from as high […] to as low 64 pM depend on the activities of the tested compounds in serial dilutions at a final DMSO concentration of 0.1%. Cells were incubated for 72 hours at 37° C. in complete growth media after addition of the test compound. After 72 hours of drug exposure, the plates were equilibrated to room temperature for approximately 30 min. Then, using a Promega Cell Titer Glo Luminescent® assay kit, lysis buffer containing 100 microliters of the enzyme luciferase and its substrate, luciferin mixture, was added to each well. The plates were mixed for 2 min on orbital shaker to ensure cell lysis and incubated for 10 min at room temperature to stabilize luminescence signal. The samples were read on VICTOR 2 using Luminescence protocol, and analyzed with Analyze5 software to generate IC50 values.

[2] = tested on: BT474 (human breast carcinoma); experiment: In vitro tumor cell proliferation assay (Cell Titer-Glo luminescent cell viability), BT474; assay type: cell-based; settings: BT-474, 72 h, BT474 cells, 72 hours of drug exposure, ATP luminescence readout, read-out: IC50, anti-proliferative activity (inhibition of cell proliferation)
Description: as §1, §2, §3

IC50 [1]	IC50 [2]	SMILES
≤ 50 µM	≤ 1 µM	CCOC(=O)Cn1cc2c(n1)CCc1c-2sc2ncnc(Nc3ccc(OCc4cccc(F)c4)c(Cl)c3)c12 [Example 174]
≤ 50 µM	≤ 1 µM	O=C(Cn1ncc2c1CCc1c-2sc2ncnc(Nc3ccc(OCc4cccc(F)c4)c(Cl)c3)c12)N(CCO)CCO [Example 212, 2-[6-({3-chloro-4-[(3-fluorobenzyl)oxy]phenyl}amino)-4,5-dihydro-3H-pyrimido[5′,4′:4,5]thieno[2,3-e]indazol-3-yl]-N,N-bis(2-hydroxyethyl)acetamide]
≤ 5 µM	≤ 1 µM	O=C(CN(CCO)CCO)N1CCC(Cn2cc3c(n2)CCc2c-3sc3ncnc(Nc4ccc(OCc5cccc(F)c5)c(Cl)c4)c23)CC1 [Example 240, 2,2′-{[2-(4-{[6-({3-chloro-4-[(3-fluorobenzyl)oxy]phenyl}amino)-4,5-dihydro-2H-pyrimido[5′,4′:4,5]thieno[2,3-e]indazol-2-yl]methyl}piperidin-1-yl)-2-oxoethyl]imino}diethanol]
≤ 5 µM	≤ 1 µM	CN1CCN(CCn2ncc3c2CCc2c-3sc3ncnc(Nc4ccc(OCc5cccc(Cl)c5)c(Cl)c4)c23)CC1 [Example 317, N-{3-chloro-4-[(3-chlorobenzyl)oxy]phenyl}-3-[2-(4-methylpiperazin-1-yl)ethyl]-4,5-dihydro-3H-pyrimido[5′,4′:4,5]thieno[2,3-e]indazol-6-amine trifluoroacetate]
≤ 50 µM	≤ 1 µM	OCCN(CCO)CCn1ncc2c1CCc1c-2sc2ncnc(Nc3ccc(OCc4cccc(F)c4)c(Cl)c3)c12 [Example 262, 2,2′-({2-[6-({3-chloro-4-[(3-fluorobenzyl)oxy]phenyl}amino)-4,5-dihydro-3H-pyrimido[5′,4′:4,5]thieno[2,3-e]indazol-3-yl]ethyl}imino)diethanol]
≤ 50 µM	≤ 1 µM	O=C(CCl)N1CCC(n2cc3c(n2)CCc2c-3sc3ncnc(Nc4ccc(OCc5cccc(F)c5)c(Cl)c4)c23)CC1 [Example 218, 2-[1-(chloroacetyl)piperidin-4-yl]-N-{3-chloro-4-[(3-fluorobenzyl)oxy]phenyl}-4,5-dihydro-2H-pyrimido[5′,4′:4,5]thieno[2,3-e]indazol-6-amine]
≤ 5 µM	≤ 1 µM	CC(C)N1CCC(Cn2cc3c(n2)CCc2c-3sc3ncnc(Nc4ccc(OCc5cccc(F)c5)c(Cl)c4)c23)CC1 [Example 245, N-{3-chloro-4-[(3-fluorobenzyl)oxy]phenyl}-2-[(1-isopropylpiperidin-4-yl)methyl]-4,5-dihydro-2H-pyrimido[5′,4′:4,5]thieno[2,3-e]indazol-6-amine]
≤ 50 µM	≤ 1 µM	O=C(Cn1ncc2c1CCc1c-2sc2ncnc(Nc3ccc(OCc4cccc(F)c4)c(Cl)c3)c12)NCCN1CCNCC1 [Example 200, 2-[6-({3-chloro-4-[(3-fluorobenzyl)oxy]phenyl}amino)-4,5-dihydro-3H-pyrimido[5′,4′:4,5]thieno[2,3-e]indazol-3-yl]-N-(2-piperazin-1-ylethyl)acetamide]
≤ 50 µM	≤ 1 µM	O=C(Cn1ncc2c1CCc1c-2sc2ncnc(Nc3ccc(OCc4cccc(F)c4)c(Cl)c3)c12)Nc1ccccn1 [Example 195, 2-[6-({3-chloro-4-[(3-fluorobenzyl)oxy]phenyl}amino)-4,5-dihydro-3H-pyrimido[5′,4′:4,5]thieno[2,3-e]indazol-3-yl]-N-pyridin-2-ylacetamide]
≤ 50 µM	≤ 1 µM	O[C@H](CNCCN1CCOCC1)Cn1ncc2c1CCc1c-2sc2ncnc(Nc3ccc(OCc4cccc(F)c4)c(Cl)c3)c12 [Example 165, (2R)-1-[6-({3-chloro-4-[(3-fluorobenzyl)oxy]phenyl}amino)-4,5-dihydro-3H-pyrimido[5′,4′:4,5]thieno[2,3-e]indazol-3-yl]-3-[(2-morpholin-4-ylethyl)amino]propan-2-ol]

Further lines, the compound ahead of its results:

SMILES	IC50 [1]	IC50 [2]
O[C@H](CN1CCCCC1)Cn1cc2c(n1)CCc1c-2sc2ncnc(Nc3ccc(OCc4cccc(F)c4)c(Cl)c3)c12 [Example 148, (2R)-1-[6-({3-chloro-4-[(3-fluorobenzyl)oxy]phenyl}amino)-4,5-dihydro-2H-pyrimido[5′,4′:4,5]thieno[2,3-e]indazol-2-yl]-3-piperidin-1-ylpropan-2-ol trifluoroacetate (salt)]	≤ 50 µM	≤ 1 µM
OCCN(CCO)CCn1ncc2c1CCc1c-2sc2ncnc(Nc3ccc(F)c(Cl)c3)c12 [Example 91, 2,2′-[(2-{6-[(3-chloro-4-fluorophenyl)amino]-4,5-dihydro-3H-pyrimido[5′,4′:4,5]thieno[2,3-e]indazol-3-yl}ethyl)imino]diethanol trifluoroacetate (salt)]	≤ 5 µM	≤ 5 µM
Fc1ccc(Nc2ncnc3sc4c(c23)CCc2n[nH]cc2-4)cc1Cl [Example 40, N-(3-chloro-4-fluorophenyl)-4,5-dihydro-2H-pyrimido[5′,4′:4,5]thieno[2,3-e]indazol-6-amine]	≤ 5 µM	≤ 5 µM
COCCN(CCOC)C[C@@H](O)Cn1cc2c(n1)CCc1c-2sc2ncnc(Nc3ccc(OCc4cccc(F)c4)c(Cl)c3)c12 [Example 138, (2R)-1-[bis(2-methoxyethyl)amino]-3-[6-({3-chloro-4-[(3-fluorobenzyl)oxy]phenyl}amino)-4,5-dihydro-2H-pyrimido[5′,4′:4,5]thieno[2,3-e]indazol-2-yl]propan-2-ol]	≤ 50 µM	≤ 1 µM
Fc1ccc(Nc2ncnc3sc4c(c23)CCc2nn(CCN3CCOCC3)cc2-4)cc1Cl [Example 5, N-(3-chloro-4-fluorophenyl)-2-(2-morpholin-4-ylethyl)-4,5-dihydro-2H-pyrimido[5′,4′:4,5]thieno[2,3-e]indazol-6-amine]	≤ 5 µM	≤ 5 µM
COCCN(CCOC)C[C@@H](O)Cn1ncc2c1CCc1c-2sc2ncnc(Nc3ccc(OCc4cccc(F)c4)c(Cl)c3)c12 [Example 164, (2R)-1-[bis(2-methoxyethyl)amino]-3-[6-({3-chloro-4-[(3-fluorobenzyl)oxy]phenyl}amino)-4,5-dihydro-3H-pyrimido[5′,4′:4,5]thieno[2,3-e]indazol-3-yl]propan-2-ol trifluoroacetate (salt)]	≤ 50 µM	≤ 5 µM
Cc1cccc(COc2ccc(Nc3ncnc4sc5c(c34)CCc3nn(CCN4CCN(C)CC4)cc3-5)cc2Cl)n1 [Example 117, N-{3-chloro-4-[(6-methylpyridin-2-yl)methoxy]phenyl}-2-[2-(4-methylpiperazin-1-yl)ethyl]-4,5-dihydro-2H-pyrimido[5′,4′:4,5]thieno[2,3-e]indazol 6-amine]	≤ 50 µM	≤ 5 µM
COCCN1CCN(C[C@@H](O)Cn2ncc3c2CCc2c-3sc3ncnc(Nc4ccc(OCc5cccc(F)c5)c(Cl)c4)c23)CC1 [Example 134, (2R)-1-[6-({3-chloro-4-[(3-fluorobenzyl)oxy]phenyl}amino)-4,5-dihydro-3H-pyrimido[5′,4′:4,5]thieno[2,3-e]indazol-3-yl]-3-[4-(2-methoxyethyl)piperazin-1-yl]propan-2-ol]	≤ 50 µM	≤ 1 µM
OC[C@@H](O)Cn1cc2c(n1)CCc1c-2sc2ncnc(Nc3ccc(OCc4cccc(F)c4)c(Cl)c3)c12 [Example 75, (S)-3-{6-[3-Chloro-4-(3-fluoro-benzyloxy)-phenylamino]-4,5-dihydro-10-thia-2,3,7,9-tetraaza-cyclopenta[a]fluoren-2-yl}-propane-1,2-diol]	≤ 5 µM	≤ 1 µM
